{"source": "patent US20110150836A1", "about": "“METHODS OF TREATING HBV AND HCV INFECTION” (Gilead Sciences, Inc., priority 2009, published 2011)", "key": {"[1]": {"test_system": "interferon-alpha", "experiment": "Induction of interferon alpha in cynomolgus monkeys, single oral dose (serum ELISA)", "assay_type": "in vivo", "details": "serum at 4 and 8 hours", "protocol": "A single dose of Compound A was administered orally to cynomolgus monkeys (3 or more animals per dose group) and serum was collected at 4 hours and 8 hours after dosing. Serum samples were analyzed for levels of interferon-alpha by ELISA. Prior to dosing, serum interferon-alpha levels were near or below the level of detection in each animal. The limit of quantitation (LOQ) for IFN-a based on cynomolgus monkey IFN-a standard was 625 pg/mL."}, "[2]": {"test_system": "interferon-alpha", "experiment": "Induction of interferon alpha in cynomolgus monkeys, multiple oral doses once per day (serum ELISA)", "assay_type": "in vivo", "protocol": "Additionally, multiple doses of Compound A were administered to Cynomolgus monkeys, and the concentrations of interferon alpha were measured. Compound A was dosed orally once per day to Cynomolgus monkeys (3 animals per dose group), and serum was collected on Days 1, 7 and 15 at 4 and 8 hours after dosing. Serum samples were analyzed for levels of interferon-alpha by ELISA. Prior to dosing on Day 1, serum interferon-alpha levels were below the level of detection in each animal."}, "[3]": {"test_system": "serum cytokines", "experiment": "Induction of serum cytokines in mice (ELISA, Luminex/Milliplex)", "assay_type": "in vivo, CD-1 mice", "details": "Day 1, 2 hours Post-dose", "protocol": "Compound A was dosed once per day for 14 days by oral gavage, at 0.5 mg/kg or 2.5 mg/kg, in CD-1 mice. Mouse serum samples were collected on day 1 and day 14, and serum cytokine levels were determined using the following method. The assay for interferon-a was done by ELISA (VeriKine™ Mouse Interferon Alpha (Mu-IFN-a) ELISA Kit, Product Number: 42100-1, PBL Biomedical Laboratories, New Brunswick, N.J.) and the other serum cytokines were assayed with Luminex and Milliplex bead kits. Cytokine levels were determined using a nonlinear five point parameter curve for interpolation of data using the fit=(A+((B−A)/(1+(((B−E)/(E−A))*((x/C)̂D))))). The results are shown in Table 4 where the cytokine concentrations are expressed in units of pg/mL."}, "[4]": {"test_system": "Woodchuck Hepatitis Virus (WHV)", "experiment": "Seroconversion and antiviral activity in woodchucks chronically infected with WHV", "assay_type": "in vivo, Eastern Woodchucks (Marmota monax)", "details": "chronic WHV carrier woodchucks, oral 0.5 mg/kg/day for 28 days", "protocol": "Compound A or placebo was administered orally to five woodchucks per group that were chronic carriers of woodchuck hepatitis virus (WHV). Compound A was administered at a dose of 0.5 mg/kg/day for 28 days. Blood samples were collected prior to dosing and multiple times during and after the 28 day dosing period. Antiviral activity of Compound A was assessed by comparing the serum WHV DNA of treated WHV carrier woodchucks with control WHV carrier woodchucks receiving vehicle. The ability of Compound A to cause seroconversion in chronically infected animals was assessed by comparing the serum antibody levels against the woodchuck hepatitis virus surface antigen (anti-WHsAg) in infected animals to the anti-WHsAg antibody levels in placebo treated animals.\nThe woodchucks used in this study were born to WHV-negative females and reared in environmentally controlled laboratory animal facilities. Woodchucks were inoculated at 3 days of age with 5 million woodchuck infectious doses of a standardized WHV inoculum (cWHV7P1 or WHV7P2). Woodchucks selected for use developed WHV surface antigen (WHsAg) serum antigenemia and became chronic WHV carriers. The chronic carrier status of these woodchucks was confirmed prior to initiation of drug treatment.\nSerum WHV DNA concentrations were measured before treatment, during treatment, and during the post-treatment follow-up period at frequent intervals. WHV viremia in serum samples was assessed by dot blot hybridization using three replicate volumes (10 μl) of undiluted serum (sensitivity, 1.0×10^7 WHV genome equivalents per ml [WHVge/ml]) compared with a standard dilution series of WHV recombinant DNA plasmid (pWHV8).\nLevels of Woodchuck Hepatitis Virus surface antigen (WHsAg) and antibodies to WHsAg (anti-WHs) were determined before treatment, during treatment, and during the post-treatment follow-up period at frequent intervals, using WHV-specific enzyme immunoassays.\nAntiviral activity of Compound A was assessed by comparing the serum WHV DNA and the hepatic WHV nucleic acids of treated WHV carrier woodchucks with control WHV carrier woodchucks receiving vehicle.\nImmune stimulatory activity of Compound A to cause seroconversion was assessed by comparing the serum levels of WHsAg and antibodies to WHsAg (anti-WHsAg)."}}}
{"smiles": "CCCCOc1nc(N)c2nc(O)n(Cc3cccc(CN4CCCC4)c3)c2n1", "note": "[Compound A, 6-amino-2-butoxy-9-(3-(pyrrolidin-1-ylmethyl)benzyl)-9H-purin-8-ol]", "values": [{"measurement": "Average peak serum Interferon-alpha levels (Mean ± standard deviation)", "setting": "[1]; single oral dose 0.005 mg/kg", "value": "7829 ± 9192", "unit": "pg/mL"}, {"measurement": "Average peak serum Interferon-alpha levels (Mean ± standard deviation)", "setting": "[1]; single oral dose 0.02 mg/kg", "value": "26148 ± 13873", "unit": "pg/mL"}, {"measurement": "Average peak serum Interferon-alpha levels (Mean ± standard deviation)", "setting": "[1]; single oral dose 0.05 mg/kg", "value": "42741 ± 29223", "unit": "pg/mL"}, {"measurement": "Average peak serum Interferon-alpha levels (Mean ± standard deviation)", "setting": "[1]; single oral dose 2.5 mg/kg", "value": "772923 ± 281529", "unit": "pg/mL"}, {"measurement": "Average peak serum Interferon-alpha levels on designated day", "setting": "[2]; oral 0.005 mg/kg once per day, Day 1", "value": 3233, "unit": "pg/mL"}, {"measurement": "Average peak serum Interferon-alpha levels on designated day", "setting": "[2]; oral 0.005 mg/kg once per day, Day 7", "value": 6709, "unit": "pg/mL"}, {"measurement": "Average peak serum Interferon-alpha levels on designated day", "setting": "[2]; oral 0.005 mg/kg once per day, Day 15", "value": 24053, "unit": "pg/mL"}, {"measurement": "Average peak serum Interferon-alpha levels on designated day", "setting": "[2]; oral 0.05 mg/kg once per day, Day 1", "value": 87570, "unit": "pg/mL"}, {"measurement": "Average peak serum Interferon-alpha levels on designated day", "setting": "[2]; oral 0.05 mg/kg once per day, Day 7", "value": 12175, "unit": "pg/mL"}, {"measurement": "Average peak serum Interferon-alpha levels on designated day", "setting": "[2]; oral 0.05 mg/kg once per day, Day 15", "value": 42648, "unit": "pg/mL"}, {"measurement": "induction of serum interferon-alpha", "setting": "[2]; oral once per day, 0.005 and 0.05 mg/kg, Days 1, 7, 15", "value": "Interferon-alpha was induced"}, {"measurement": "Average Serum IFN-a Level ± Standard Deviation", "setting": "[3]; oral 0.5 mg/kg", "value": "296.3 ± 322.4", "unit": "pg/mL"}, {"measurement": "Average Serum IL1-β Level ± Standard Deviation", "setting": "[3]; oral 0.5 mg/kg", "value": "4.8 ± 2.7", "unit": "pg/mL"}, {"measurement": "Average Serum IL6 Level ± Standard Deviation", "setting": "[3]; oral 0.5 mg/kg", "value": "257.2 ± 420.9", "unit": "pg/mL"}, {"measurement": "Average Serum IL12p40 Level ± Standard Deviation", "setting": "[3]; oral 0.5 mg/kg", "value": "3.2 ± 0", "unit": "pg/mL"}, {"measurement": "Average Serum IL-10 Level ± Standard Deviation", "setting": "[3]; oral 0.5 mg/kg", "value": "3.2 ± 0", "unit": "pg/mL"}, {"measurement": "Average Serum TNF-a Level ± Standard Deviation", "setting": "[3]; oral 0.5 mg/kg", "value": "41.7 ± 42.4", "unit": "pg/mL"}, {"measurement": "Average Serum IFN-a Level ± Standard Deviation", "setting": "[3]; oral 2.5 mg/kg", "value": "1091.8 ± 413.6", "unit": "pg/mL"}, {"measurement": "Average Serum IL1-β Level ± Standard Deviation", "setting": "[3]; oral 2.5 mg/kg", "value": "20.8 ± 16.1", "unit": "pg/mL"}, {"measurement": "Average Serum IL6 Level ± Standard Deviation", "setting": "[3]; oral 2.5 mg/kg", "value": "6710.2 ± 3657.4", "unit": "pg/mL"}, {"measurement": "Average Serum IL12p40 Level ± Standard Deviation", "setting": "[3]; oral 2.5 mg/kg", "value": "10 ± 11.7", "unit": "pg/mL"}, {"measurement": "Average Serum IL-10 Level ± Standard Deviation", "setting": "[3]; oral 2.5 mg/kg", "value": "143.4 ± 102.7", "unit": "pg/mL"}, {"measurement": "Average Serum TNF-a Level ± Standard Deviation", "setting": "[3]; oral 2.5 mg/kg", "value": "407.1 ± 258.1", "unit": "pg/mL"}, {"measurement": "serum WHV DNA concentrations", "setting": "[4]; FIG. 1", "value": "caused a substantial reduction in serum WHV DNA concentrations"}, {"measurement": "antibodies against Woodchuck Hepatitis Virus Surface Antigen (anti-WHs)", "setting": "[4]; FIG. 2", "value": "stimulated production of antibodies against Woodchuck Hepatitis Virus Surface Antigen (WHsAg)"}, {"measurement": "serum levels of WHsAg", "setting": "[4]; FIG. 3", "value": "caused a substantial reduction in serum levels of WHsAg"}, {"measurement": "seroconversion against WHV", "setting": "[4]; FIGS. 1-3", "value": "induced seroconversion against WHV"}]}
